# No end group written: not given here.
# Key:
# [1] = test system: mice chronically challenged with BLM; assay: Chronic BLM challenge model (BLM intraperitoneally twice a week for 33 days), treatment with CPP-DPs; assay type: in vivo, mouse; conditions: for total body weight over time: intraperitoneal three times a week, started after 14 days of challenge
# Excerpt: FIG. 6. Therapeutic effects of CPP-DPs in the chronic BLM challenge model. A. Time course schematic of the chronic BLM challenge model. B. Time-dependent changes in total body weight (mean percent of initial body weight ±SD. Asterisks indicate higher (p<0.05) body weights in CPP-DP-treated compared to PBS control-treated mice. C. Individual collagen levels, μg per mg of wet lung tissue (left), and IL-33 levels, pg per mg of wet lung tissue (right), in lung homogenates from mice treated as indicated. Asterisks indicate lower (p<0.05) levels in BLM-challenged, PBS-treated control mice.
# We then considered that such acute model of bleomycin injury, despite its universal use in this field of work, is well known to represent the chronic nature of human pulmonary fibrosis less accurately than the chronic model of systemic BLM delivery. In the chronic model, BLM is injected intraperitoneally twice a week for 33 days, with subsequent assessment of pulmonary changes (FIG. 6A). We challenged mice in this fashion, and, after 14 days such chronic challenge at which point the decline in their total body weight became obvious (FIG. 6B), initiated treatment with CPP-DP5, CPP-DP10, or PBS injected intraperitoneally three times a week (FIG. 6A). […] Of note, such therapy with CPP-DP5 was efficacious despite the continued challenge with repeated administration of BLM (FIG. 6A).
# [2] = test system: Wild-type C57BL/6 mice challenged with BLM; assay: Acute BLM model in vivo (single intratracheal 0.075 U BLM), therapeutic regimen with Series 2 peptides; design: species or system mouse; conditions: for pulmonary levels of IL-33 (ELISA, lung homogenates) / total lung collagen (QuickZyme assay): 10 nmol/g intraperitoneal daily on days 5-13, day 14; for signs of toxicity (ruffled fur, hunched posture, reduced mobility, diarrhea, weight lost, tachypnea) / therapeutic effect against fibrosis: acute BLM injury model; for signs of toxicity (ruffled fur, hunched posture, reduced mobility, diarrhea, weight lost, tachypnea): in vivo; for therapeutic effect against fibrosis: therapeutic mode
# Excerpt: FIG. 2. Design of decoy peptides in Series 2 (A), the effects of peptides 2-5 and 2-10 on pulmonary levels of IL-33 (B, D), and collagen (C, D) proteins in the acute BLM model in vivo. In panels B and D, mean ±SD values are shown. […] Wild-type C57BL/6 mice were challenged with a single intratracheal instillation of 0.075 U of BLM or PBS vehicle, and the disease was allowed to evolve for 5 days. On days 5-13, mice received daily intraperitoneal injections of 10 nmol/g of peptides 2-5 or 2-10, or PBS vehicle. Mice were euthanized on day 14, and IL-33 levels measured by ELISA in lung homogenates, whereas total lung collagen was measured using QuickZyme assays.
# (§1) We propose development of a new IL-33 attenuating therapy based on CPP-DP-based strategy. […] In each peptide 1-1 and 1-2, the CPP penetratin was N-terminally fused to the DP. The final sequences of peptides 1-1 and 1-2 were […] (SEQ ID NO:69) and ROIKIWFONRRMKWKKFRRETTKRPSLKTG (SEQ ID NO:70), respectively, with the CPP portion shown in italic and the DP portions underlined. Primary fibroblasts were electroporated with FLIL33-encoding and, separately, control non-coding vehicle (NULL) plasmids, and, after 24 h, the medium was replaced with added peptides 1-1 or 1-2. Based on our experience with CPP-DPs, initial concentrations of 20 μM and 40 μM were tested. After an additional 24 h, cells were lysed and the lysates were analyzed for the levels of IL-33 by ELISA. […] The most likely explanation for this effect is based on our previous experience of depleting IPOS with CRISPR-Cas9, AdV-shRNA, and siRNA technologies (Clerman et al., J Biol Chem. (2017). 292:21653-61: Kopach et al., J Biol Chem. (2014). 289:11829-43). We previously observed that a complete or nearly complete depletion of IPO5 using these methodologies quickly leads to cell death, whereas substantial yet incomplete depletion of IPO5 levels abrogates FLIL33 without affecting cell viability. We argue that peptide 1-1 is “too effective” in binding IPO5, thus competing for it not only with FLIL33 but also with other critical molecular partners, and ultimately impeding on cell survival. We then undertook a more rigorous, unbiased approach, based on the following considerations. As stated above in relation to Example 1, there are possible multiple other regions in the N-terminal portion of FLIL33 that control its stability, subcellular localization, secretion, maturation, and functional binding of intracellular molecular partners. Targeting by DPs needs to cover the entire N-terminal part of FLIL33 and be performed in a systematic fashion, and the data integrated with the observations in Examples 1 and 2. […] We began by designing Series 2 of overlapping DPs that together cover the entire N-terminus of FLIL33. In all cases, a different CPP (TAT) is fused on the N terminus, based on the possibility that it may decrease the peptide load per cell and thus limit toxicity. […] We then proceeded to test the capacity of this peptide to deplete the levels of IL-33 in vivo and to determine whether such depletion may be protective, in the therapeutic mode, against fibrosis in the acute BLM injury model. […] Thus, peptide 2-5 fused with TAT may be a promising therapeutic agent. However, this and other peptides in this series need to be considered in detail.
# IL-33 = assay: Initial cell culture screening tests of Series 2 peptides for depletion of IL-33; assay type: cell-based; conditions: TAT-fused Series 2 peptide, most pronounced of the series
# Excerpt: We propose development of a new IL-33 attenuating therapy based on CPP-DP-based strategy. […] In each peptide 1-1 and 1-2, the CPP penetratin was N-terminally fused to the DP. The final sequences of peptides 1-1 and 1-2 were […] (SEQ ID NO:69) and ROIKIWFONRRMKWKKFRRETTKRPSLKTG (SEQ ID NO:70), respectively, with the CPP portion shown in italic and the DP portions underlined. Primary fibroblasts were electroporated with FLIL33-encoding and, separately, control non-coding vehicle (NULL) plasmids, and, after 24 h, the medium was replaced with added peptides 1-1 or 1-2. Based on our experience with CPP-DPs, initial concentrations of 20 μM and 40 μM were tested. After an additional 24 h, cells were lysed and the lysates were analyzed for the levels of IL-33 by ELISA. […] The most likely explanation for this effect is based on our previous experience of depleting IPOS with CRISPR-Cas9, AdV-shRNA, and siRNA technologies (Clerman et al., J Biol Chem. (2017). 292:21653-61: Kopach et al., J Biol Chem. (2014). 289:11829-43). […]
# Studies in human and mouse cell cultures. […] CPP-DPs and control CPPs will be added to cell culture, and the levels of the overexpressed proteins assessed in cell lysates by ELISA as well as by WB for the HA-tag, which is attached to the C-terminus of all of these proteins.
# [3] = test system: mice challenged intratracheally with a single dose bleomycin (BLM); assay: Acute BLM challenge model (intratracheal 0.08 U BLM), therapeutic regimen with CPP-DPs; assay type: in vivo, mouse; conditions: for collagen accumulation in lung / pulmonary IL-33 accumulation: end of 3 weeks, vs PBS-treated animals; for total body weight over time: intraperitoneal once a day from day 8 for 2 weeks, vs BLM-challenged, PBS-treated mice
# Excerpt: FIG. 5. Therapeutic effects of CPP-DPs in the acute BLM challenge model. A. Time course schematic of the acute BLM challenge model. […] Data in panels B and C were pooled data from separate 3 experiments.
# To test the ability of these peptides to deplete the levels of IL-33 in vivo and to assess their ability to modulate the degree of pulmonary fibrosis, these peptides were synthesized, HPLC-purified, and tested in the therapeutic regimen in mice challenged intratracheally with a single dose bleomycin (BLM). In this acute BLM challenge mode, mice received intratracheal 0.08 U of BLM or an equal volume phosphate-buffered saline (PBS) control and allowed to respond to such injury for a week without any intervention. On day 8, intraperitoneal administrations of CPP-DPs once a day were started and continued for 2 weeks. In the end of the 3 weeks, mice have been euthanized, lungs extracted, and pulmonary levels of IL-33 and collagen measured.
# Primary fibroblasts = assay: Cell viability / toxicity of peptides in FLIL33-overexpressing or NULL-transfected primary fibroblasts; assay type: cell-based; conditions: for effect on cell viability (toxicity to cells): initial concentrations of 20 μM and 40 μM, FLIL33-overexpressing or NULL-transfected fibroblasts, 24 h
# Excerpt: as §1
# [4] = vs CPP-DP10-treated and PBS-treated controls
Substance,total body weight over time [1],"collagen accumulation in lung [1, 4]","pulmonary IL-33 accumulation [1, 4]","pulmonary levels of IL-33 (ELISA, lung homogenates) [2]",total lung collagen (QuickZyme assay) [2],"signs of toxicity (ruffled fur, hunched posture, reduced mobility, diarrhea, weight lost, tachypnea) [2]",therapeutic effect against fibrosis [2],depletion of IL-33 (IL-33),collagen accumulation in lung [3],pulmonary IL-33 accumulation [3],total body weight over time [3],effect on cell viability (toxicity to cells) (Primary fibroblasts),concentrations at which the peptide remains toxic (as low as) (Primary fibroblasts; serial dilutions),"toxicity at concentrations lower than 2.5 μM (Primary fibroblasts; serial dilutions, lower concentrations)"
QQKAKEVCPMYFMKLR [peptide 2-5],regained their body weight in a time-dependent fashion,significantly less collagen,significantly less,attenuated the levels of IL-33,arrested deposition of collagen,Neither of these two peptides caused any signs of toxicity,encouraging therapeutic effect,exceeding 60 % of the original levels,significantly less collagen,significantly less,quickly recovered their body weight,,,
SGLMIKKEACYFRRET [2-7],,,,,,,,,significantly less collagen,significantly less,quickly recovered their body weight,,,
GRKHKRHLVLAACQQQ [peptide 2-10],not,,,not,not,Neither of these two peptides caused any signs of toxicity,did not,,not,,closely followed the same trend,,,
RQIKIWFQNRRMKWKKFMKLRSGLMIKKEA-NH2 [peptide 1-1],,,,,,,,,,,,highly toxic to cells,≥ 2500 nM,becomes non-toxic
"RQIKIWFQNRRMKWKKFRRETTKRPSLKTG-NH2 [peptide 1-2, ROIKIWFONRRMKWKKFRRETTKRPSLKTG]",,,,,,,,,,,,no effect on cell viability,,

# — patent publication US20250188141A1, “DECOY PEPTIDES FOR TREATING DISEASES OR CONDITIONS MODULATED BY INTERLEUKIN-33” (University of Maryland, Baltimore, priority 2022, published 2025)
